The supplement of paper PMC10307832

Columns and labels:
Assay in all cases: relative viability (nuclei count vs DMSO), 5 days (fraction); higher = more cells survive
EPLC-272H = test system: EPLC-272H
In short: (§1)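 Cells from lung cancer lines were seeded into 1536-well plates and, one day later, dosed by pin tool. Treatments were either a single drug or a fixed dose of an anchor drug with five library-drug doses (not always all listed) in √10 steps. After 5 days, nuclei were stained in a one-step fixation (final 0.05% Triton X-100, 1% formaldehyde, 1 ug/ml Hoechst) and counted on 4× images, and relative viability is the treated-to-vehicle nuclei ratio, as the median of duplicate plates.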

NCI-H1975 = test system: NCI-H1975
In short: as §1

LXF-289 = test system: LXF-289
In short: as §1

UMC-11 = test system: UMC-11
In short: as §1

HCC-78 = test system: HCC-78
In short: as §1

NCI-H1915 = test system: NCI-H1915
In short: as §1

SK-LU-1 = test system: SK-LU-1
In short: as §1

LC-2-ad = test system: LC-2-ad
In short: as §1

NCI-H358 = test system: NCI-H358
In short: as §1

NCI-H1755 = test system: NCI-H1755
In short: as §1

HOP-62 = test system: HOP-62
In short: as §1

NCI-H2170 = test system: NCI-H2170
In short: as §1

NCI-H460 = test system: NCI-H460
In short: as §1

A-427 = test system: A-427
In short: as §1

LU99A = test system: LU99A
In short: as §1

NCI-H2085 = test system: NCI-H2085
In short: as §1

LCLC-97TM1 = test system: LCLC-97TM1
In short: as §1

COR-L 105 = test system: COR-L 105
In short: as §1

NCI-H1793 = test system: NCI-H1793
In short: as §1

HCC-366 = test system: HCC-366
In short: as §1

NCI-H1944 = test system: NCI-H1944
In short: as §1

SW 900 = test system: SW 900
In short: as §1

`Oc1nc(-c2ccc(C(F)(F)F)cc2)nc2c1CSCC2` [XAV939] + Cc1cc(Nc2cc(N3CCN(C)CC3)nc(Sc3ccc(NC(=O)C4CC4)cc3)n2)n[nH]1 [Tozasertib] (partner 0.1 µM) was tested, and the relative viability (EPLC-272H; first compound 0.08 µM) was 0.409, the relative viability (EPLC-272H; first compound 0.253 µM) was 0.287 and the relative viability (EPLC-272H; first compound 0.8 µM) was 0.22. For the same molecule, the relative viability (EPLC-272H; first compound 2.53 µM) was 0.255, the relative viability (NCI-H1975; first compound 0.08 µM) was 0.729 and the relative viability (NCI-H1975; first compound 0.253 µM) was 0.736. For the same molecule, the relative viability (NCI-H1975; first compound 0.8 µM) was 0.683, the relative viability (NCI-H1975; first compound 2.53 µM) was 0.514 and the relative viability (LXF-289; first compound 0.08 µM) was 0.215. For the same molecule, the relative viability (LXF-289; first compound 0.253 µM) was 0.187, the relative viability (LXF-289; first compound 0.8 µM) was 0.161 and the relative viability (LXF-289; first compound 2.53 µM) was 0.111. For the same molecule, the relative viability (UMC-11; first compound 0.08 µM) was 0.189, the relative viability (UMC-11; first compound 0.253 µM) was 0.205 and the relative viability (UMC-11; first compound 0.8 µM) was 0.19. For the same molecule, the relative viability (UMC-11; first compound 2.53 µM) was 0.211, the relative viability (HCC-78; first compound 0.08 µM) was 0.558 and the relative viability (HCC-78; first compound 0.253 µM) was 0.373. For the same molecule, the relative viability (HCC-78; first compound 0.8 µM) was 0.531, the relative viability (HCC-78; first compound 2.53 µM) was 0.368 and the relative viability (NCI-H1915; first compound 0.08 µM) was 0.5. For the same molecule, the relative viability (NCI-H1915; first compound 0.253 µM) was 0.444, the relative viability (NCI-H1915; first compound 0.8 µM) was 0.416 and the relative viability (NCI-H1915; first compound 2.53 µM) was 0.43. It also gave a relative viability (SK-LU-1; first compound 0.08 µM) of 0.35, a relative viability (SK-LU-1; first compound 0.253 µM) of 0.267 and a relative viability (SK-LU-1; first compound 0.8 µM) of 0.322. It also gave a relative viability (SK-LU-1; first compound 2.53 µM) of 0.279, a relative viability (LC-2-ad; first compound 0.08 µM) of 0.481 and a relative viability (LC-2-ad; first compound 0.253 µM) of 0.446. The relative viability (LC-2-ad; first compound 0.8 µM) was 0.488, the relative viability (LC-2-ad; first compound 2.53 µM) was 0.381 and the relative viability (NCI-H358; first compound 0.08 µM) was 0.112. It also gave a relative viability (NCI-H358; first compound 0.253 µM) of 0.0945, a relative viability (NCI-H358; first compound 0.8 µM) of 0.0995 and a relative viability (NCI-H358; first compound 2.53 µM) of 0.0987. It also gave a relative viability (NCI-H1755; first compound 0.08 µM) of 0.575, a relative viability (NCI-H1755; first compound 0.253 µM) of 0.518 and a relative viability (NCI-H1755; first compound 0.8 µM) of 0.587. It also gave a relative viability (NCI-H1755; first compound 2.53 µM) of 0.481, a relative viability (HOP-62; first compound 0.08 µM) of 0.372 and a relative viability (HOP-62; first compound 0.253 µM) of 0.339. For the same molecule, the relative viability (HOP-62; first compound 0.8 µM) was 0.338, the relative viability (HOP-62; first compound 2.53 µM) was 0.329 and the relative viability (NCI-H2170; first compound 0.08 µM) was 0.763. The relative viability (NCI-H2170; first compound 0.253 µM) was 0.606, the relative viability (NCI-H2170; first compound 0.8 µM) was 0.66 and the relative viability (NCI-H2170; first compound 2.53 µM) was 0.463. For the same molecule, the relative viability (NCI-H460; first compound 0.08 µM) was 0.587, the relative viability (NCI-H460; first compound 0.253 µM) was 0.392 and the relative viability (NCI-H460; first compound 0.8 µM) was 0.45. It also gave a relative viability (NCI-H460; first compound 2.53 µM) of 0.289, a relative viability (A-427; first compound 0.08 µM) of 0.238 and a relative viability (A-427; first compound 0.253 µM) of 0.164. It also gave a relative viability (A-427; first compound 0.8 µM) of 0.19, a relative viability (A-427; first compound 2.53 µM) of 0.193 and a relative viability (LU99A; first compound 0.08 µM) of 0.268. It also gave a relative viability (LU99A; first compound 0.253 µM) of 0.261, a relative viability (LU99A; first compound 0.8 µM) of 0.237 and a relative viability (LU99A; first compound 2.53 µM) of 0.284. For the same molecule, the relative viability (NCI-H2085; first compound 0.08 µM) was 0.774, the relative viability (NCI-H2085; first compound 0.253 µM) was 0.856 and the relative viability (NCI-H2085; first compound 0.8 µM) was 0.651. The relative viability (NCI-H2085; first compound 2.53 µM) was 0.688, the relative viability (LCLC-97TM1; first compound 0.08 µM) was 0.344 and the relative viability (LCLC-97TM1; first compound 0.253 µM) was 0.238. For the same molecule, the relative viability (LCLC-97TM1; first compound 0.8 µM) was 0.186, the relative viability (LCLC-97TM1; first compound 2.53 µM) was 0.352 and the relative viability (COR-L 105; first compound 0.08 µM) was 0.358. For the same molecule, the relative viability (COR-L 105; first compound 0.253 µM) was 0.374, the relative viability (COR-L 105; first compound 0.8 µM) was 0.349 and the relative viability (COR-L 105; first compound 2.53 µM) was 0.343. It also gave a relative viability (NCI-H1793; first compound 0.08 µM) of 0.403, a relative viability (NCI-H1793; first compound 0.253 µM) of 0.297 and a relative viability (NCI-H1793; first compound 0.8 µM) of 0.306. It also gave a relative viability (NCI-H1793; first compound 2.53 µM) of 0.263, a relative viability (HCC-366; first compound 0.08 µM) of 0.163 and a relative viability (HCC-366; first compound 0.253 µM) of 0.0951. The relative viability (HCC-366; first compound 0.8 µM) was 0.116, the relative viability (HCC-366; first compound 2.53 µM) was 0.0569 and the relative viability (NCI-H1944; first compound 0.08 µM) was 0.261. For the same molecule, the relative viability (NCI-H1944; first compound 0.253 µM) was 0.228, the relative viability (NCI-H1944; first compound 0.8 µM) was 0.235 and the relative viability (NCI-H1944; first compound 2.53 µM) was 0.224. For the same molecule, the relative viability (SW 900; first compound 0.08 µM) was 0.663, the relative viability (SW 900; first compound 0.253 µM) was 0.549 and the relative viability (SW 900; first compound 0.8 µM) was 0.535. It also gave a relative viability (SW 900; first compound 2.53 µM) of 0.323.
